Measured values: patent publication US20240342316A1, “A PHARMACEUTICAL COMPOSITION FOR IMAGING” (ASTELLAS PHARMA INC., priority 2021, published 2024)

Key:
[1] = Phase 1 single ascending IV bolus dose study: plasma and urine pharmacokinetics; settings: for t1/2, apparent terminal plasma elimination half-life: healthy participants, n = 4, arithmetic mean
Source text: The study (ClinicalTrials.gov Identifier: NCT03698305) was a randomized, double-blind, placebo-controlled, sequential ascending IV bolus dose group study conducted at a single center (Covance Clinical Research Unit, Inc.) in the United States.
The study population, 30 participants in all, was comprised of 5 cohorts consisting of 6 healthy volunteers (3 females and 3 males) per cohort. […] The study consisted of a screening period, an investigational period, and a follow-up period (FIG. 1). Following successful screening, participants were admitted to the clinic on study day −1.
After at least 5 of 6 patients in a cohort had completed the study procedure, a Dose-Escalation Committee reviewed all PK and safety data, and decided whether to proceed with dose escalation, stop dose escalation, repeat a dose level, or investigate a lower dose level intermediate between the current and prior doses.
Blood and urine samples were collected over a 24-hour period. Participants were discharged on day 2, returned to the clinic for a follow-up visit on day 7, and the study was completed with a follow-up phone call on day 14. To prevent accidental unblinding should the urine be discolored, catheter and tubing collection bags were covered, and participants were prevented from observing these or the collection vials when changed.
Urine interval sampling was between −1 hour and time of dosing, and between each subsequent consecutive urine sample collection time point.
The safety population comprised all participants who received a single dose of study drug. The PK population comprised safety population participants for which data were available for derivation of ≥1 PK parameter. Pharmacokinetic parameters were calculated by noncompartmental analysis using Phoenix WinNonlin version 8.1 and were summarized by treatment group.

[2] = NIR versus white light; cited from earlier work

| Compound | Mean terminal half-life, range across doses ([1]; 0.1 mg to 24 mg single IV bolus) [h] | t1/2, apparent terminal plasma elimination half-life ([1]; single IV bolus 0.1 mg) [h] | t1/2, apparent terminal plasma elimination half-life ([1]; single IV bolus 0.5 mg) [h] | t1/2, apparent terminal plasma elimination half-life ([1]; single IV bolus 2 mg) [h] | t1/2, apparent terminal plasma elimination half-life ([1]; single IV bolus 8 mg) [h] | t1/2, apparent terminal plasma elimination half-life ([1]; single IV bolus 24 mg) [h] | NIRF ureter visualization in first-in-human study [2] |
| --- | --- | --- | --- | --- | --- | --- | --- |
| COC1=C(/C=C/C2=[N+](CCC(=O)NCCCO[C@H]3[C@H]4O[C@H]5[C@H](O)[C@@H](O)[C@@H](O[C@H]6[C@H](O)[C@@H](O)[C@@H](O[C@H]7[C@H](O)[C@@H](O)[C@@H](O[C@H]8[C@H](O)[C@@H](O)[C@@H](O[C@H]9[C@H](O)[C@@H](O)[C@@H](O[C@H]%10[C@H](O)[C@@H](O)[C@@H](O[C@@H]([C@@H]3O)[C@@H](CO)O4)O[C@@H]%10CO)O[C@@H]9CO)O[C@@H]8CO)O[C@@H]7CO)O[C@@H]6CO)O[C@@H]5CO)c3ccc4ccccc4c3C2(C)C)CCC/C1=C\C=C1\N(CCC(=O)NCCCO[C@H]2[C@H]3O[C@H]4[C@H](O)[C@@H](O)[C@@H](O[C@H]5[C@H](O)[C@@H](O)[C@@H](O[C@H]6[C@H](O)[C@@H](O)[C@@H](O[C@H]7[C@H](O)[C@@H](O)[C@@H](O[C@H]8[C@H](O)[C@@H](O)[C@@H](O[C@H]9[C@H](O)[C@@H](O)[C@@H](O[C@@H]([C@@H]2O)[C@@H](CO)O3)O[C@@H]9CO)O[C@@H]8CO)O[C@@H]7CO)O[C@@H]6CO)O[C@@H]5CO)O[C@@H]4CO)c2ccc3ccccc3c2C1(C)C [Pudexacianinium] | 2.1 to 3.6 | 2.24 | 2.23 | 2.10 | 3.58 | 3.41 | – |
| CN(C)c1ccc2nc3ccc(=[N+](C)C)cc-3sc2c1 [methylene blue] | – | – | – | – | – | – | did not provide sufficient optical properties to offer any visualization advantage with NIR over white light |
